# Reference: patent publication US11814352B2, “Salts formed by 2-(1-acyloxy-n-pentyl) benzoic acid and basic amino acid or aminoguanidine, and preparation method and application thereof” (JIANGSU KANION PHARMACEUTICAL CO., LTD., priority 2018, dated 2023)
# Like-named read-outs stand apart in the source and are kept apart here. Marks after values point to notes of the source that are not given here.
# Legend:
# [1] = system: arteriovenous bypass thrombosis in rats; experiment: Effect on arteriovenous bypass thrombosis in rats; assay type: in vivo, SD rats; settings: 10 mg/kg/day tail vein 7 days; for inhibition at 10 mg/kg/day: Rattus norvegicus, 168 h, vs model group
# Procedure, shortened: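 Male SD rats (250-280 g) dosed 10 mg/kg/day i.v. (tail vein, saline with 1% DMSO) for 7 days, n=8; vehicle controls. Two hours after the last dose, under pentobarbital, a carotid–jugular shunt holding a weighed suture ran for 15 min; thrombus wet and dry (24 h air-dried) weights taken.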
# [2] = system: bleeding time in mice after tail cutting; experiment: Effect on bleeding time in mice after tail cutting; assay type: in vivo, Kunming mice; settings: 5 mg/kg orally once a day for 14 days, 1 h after last dose
# Method: SPF Kunming mice, weighing 18-22 g, purchased from Beijing Vital River Laboratory Animal Technology Co., Ltd., having a certificate number of SCXK (Beijing) 2010-0002, raised in an SPF animal room with indoor temperature controlled at 23±2° C., and allowed to freely eat and drink. The day and night time was 12 h/12 h.
# The administration dose level of the positive drug groups and the test drug groups was 5 mg/kg, and the same amount of normal saline was given to the negative control group. All mice were administered for 14 consecutive days orally once a day. One hour after the last dose, the mice were anesthetized with 1-2% isoflurane, and the tails were cut for 5 mm. The tips of the tails were absorbed dry with filter paper every 30 seconds until the bleeding stopped naturally. Bleeding time is defined as the interval between the start and stop of bleeding.
smiles,measurement,setting,value
"CCCC[C@H](OC(C)=O)c1ccccc1C(=O)O [I1s, L-Arginine (S)-2-(1-Acetoxy-n-Pentyl) Benzoate]",Dry weight of thrombus,[1]; 2 h after last dose,5.52 ± 0.44
same,Wet weight of thrombus,[1]; 2 h after last dose,20.23 ± 1.25**^
same,inhibition at 10 mg/kg/day,[1]; read-out: Inhibition rate (dry weight of thrombus),45%
same,inhibition at 10 mg/kg/day,[1]; read-out: Inhibition rate (wet weight of thrombus),44.1%
same,Bleeding time,[2],25.31 ± 1.01 min
